# According to patent publication US9402839B2, “Selective targeting agents for mitochondria” (University of Pittsburgh—Of the Commonwealth System of …, priority 2006, dated 2016):
# How the values were obtained:
# MECs [1] = test: ActD-induced apoptosis in MECs (PS externalization, caspase-3 activation, DNA fragmentation); assay type: cell-based, mouse
# Text: Cells that annexin V-positive and PI-negative were considered apoptotic.
# MECs [2] = test: Determination of intracellular superoxide radicals (DHE oxidation, flow cytometry) in ActD-treated MECs; assay type: cell-based, mouse; settings: 10 μM pretreatment, ActD 100 ng/mL; nearly two-fold ActD-induced increase
# Protocol: Determination of intracellular superoxide radicals Oxidation-dependent fluorogenic dye, dihydroethidium (“DHE”, Molecular Probes) was used to evaluate intracellular production of superoxide radicals. DHE is cell permeable and, in the presence of superoxide, is oxidized to fluorescent ethidium which intercalates into DNA. The fluorescence of ethidium was measured using a FACscan (BECTON-DICKINSON, Rutherford, N.J.) flow cytometer, equipped with a 488-nm argon ion laser and supplied with the Cell Quest software. Mean fluorescence intensity from 10,000 cells were acquired using a 585-nm bandpass filter (FL-2 channel).
# [3] = test system: rat ileal mucosal permeability; test: Intestinal mucosal permeability assay (FD4 clearance, everted gut sacs) after pressure-controlled hemorrhagic shock; assay type: in vivo; settings: intraluminal
# Protocol: Intestinal mucosal permeability assay. Animals were allowed access to water but not food for 24 h prior to the experiment in order to decrease the volume of intestinal contents. The rats were instrumented as described above.
# A midline laparotomy was performed and the small intestine was exteriorized from the duodenojejunal junction to the ileocecal valve. A small incision was made on the antimesenteric aspect of the proximal small intestine and saline solution (1.5 ml) was injected. The bowel was ligated proximally and distally to the incision with 4-0 silk (LOOK, Reading, Pa.).
# The small intestine was compressed gently in aboral direction along its length to displace intestinal contents into the colon. Starting 5 cm from the ileocecal valve, the ileum was partitioned into six contiguous water-tight segments. Each segment was 3 cm long and was bounded proximally and distally by constricting circumferential 4-0 silk sutures. Care was taken to ensure that the vascular supply to intestine was not compromised, and each segment was well-perfused.
# Two randomly selected segments in each rat were injected with 0.3 ml of vehicle and served as “no treatment” controls. In order to fill the segments, a small incision was made and the solution was injected using a Teflon catheter (ABBOCATH 16Ga, ABBOTT LABORATORIES).
# The remaining four other segments were injected with solutions containing either 4-hydroxy-2,2,6,6-tetramethylpiperidine-N-oxyl (TEMPOL) or one of the Gramicidin S-based compounds. Four different final concentrations of TEMPOL in normal saline were evaluated: 0.1, 1, 5 and 20 mM. The hemigramicidin-based compounds were dissolved in a mixture of dimethylsulfoxide (DMSO) and normal saline (1:99 v/v) and injected at final concentrations of 0.1, 1, 10 or 100 μM.
# After the segments were loaded with saline or the test compounds, the bowel was replaced inside the peritoneal cavity and the abdominal incision was temporarily closed using Backhaus forceps.
# After a 5 min stabilization period, hemorrhagic shock was induced by withdrawing blood via the jugular catheter. MAP was maintained at 30±3 mm Hg for 2 hours. The shed blood was re-infused as needed to maintain MAP within the desired range.
# After 2 h of shock, the animals were euthanized with an intracardiac KCl bolus injection. The ileum was rapidly excised from the ileocecal valve to the most proximal gut segment. The tips of each segment were discarded. In order to assay caspases 3 and 7 activity and phospholipids peroxidation, mucosa samples were collected from gut segments immediately after hemorrhage and stored at −80° C. For permeability measurements, each segment was converted into an everted gut sac, as previously described by Wattanasirichaigoon et al., see Wattanasirichaigoon, S. et al., Effect of mesenteric ischemia and reperfusion or hemorrhagic shock on intestinal mucosal permeability and ATP content in rats, SHOCK, 12:127-133 (1999).
# Briefly, as per the Wattanasirichaigoon protocol referenced above, the sacs were prepared in ice-cold modified Krebs-Henseleit bicarbonate buffer (“KHBB”), pH 7.4. One end of the gut segment was ligated with a 4-0 silk suture; the segment was then everted onto a thin plastic rod. The resulting gut sac was mounted on a Teflon catheter (Abbocath 16GA, Abbot Laboratories) connected to a 3 ml plastic syringe containing 1.5 ml of KHBB. The sac was suspended in a beaker containing KHBB plus fluorescein-isothiocyanate labeled dextran (average molecular mass 4 kDa; FD4; 0.1 mg/ml). This solution was maintained at 37° C., and oxygenated by bubbling with a gas mixture (O2 95%/CO2 5%). After 30 min, the fluid within the gut sac was collected. The samples were cleared by centrifugation at 2000 g for 5 min.
# Fluorescence of FD4 in the solution inside the beaker and within each gut sac was measured using a fluorescence spectrophotometer (LS-50, PERKIN-ELMER, Palo Alto, Calif.) at an excitation wavelength of 492 nm and an emission wavelength of 515 nm. […]
smiles,measurement,setting,value
CC(C)C[C@@H](/C=C/[C@H](Cc1ccccc1)C(=O)N1CCC[C@H]1C(=O)N[C@H](C(=O)N[C@@H](CCCNC(=O)OCc1ccccc1)C(=O)NC1CC(C)(C)N([O])C(C)(C)C1)C(C)C)NC(=O)OC(C)(C)C [XJB-5-131],DNA fragmentation,"MECs [1]; 10 μM, ActD 100 ng/mL",prevented DNA fragmentation
same,PS externalization (annexin V-positive cells),"MECs [1]; 10 μM, ActD 100 ng/mL",reduced the number of annexin V-positive cells
same,caspase-3 activation,"MECs [1]; 10 μM, ActD 100 ng/mL",prevented caspase-3 activation
same,anti-apoptotic protection / cytotoxicity at higher concentrations,MECs [1]; concentrations in excess of 10 μM,either less protective or exhibited cytotoxicity
same,intracellular superoxide generation in MECs,MECs [2],completely inhibited
same,lowest effective concentration against ileal mucosal hyperpermeability,[3],1 µM
same,protection against hemorrhagic shock-induced ileal mucosal hyperpermeability,"[3]; 0.1-100 μM, 2 h shock",significantly ameliorated
same,potency relative to TEMPOL,[3]; gut mucosal protection,~1000 fold
same,hemorrhagic shock-induced mucosal hyperpermeability relative to control value,[3]; control segments loaded with vehicle,approximately 60%
